In patent publication US9233957B2, “5-carbamoyl-adamantan-2-yl amide derivatives, pharmaceutically acceptable salts thereof and preparation process thereof” (SK BIOPHARMACEUTICALS CO., LTD., priority 2011, dated 2016):

Key:
[1] = target: T1, Human 11b-HSD1 (Homo sapiens, UniProt P28845); experiment: Inhibition of cortisone-to-cortisol conversion in CHO-K1 cells over-expressing human 11b-HSD1 (HTRF cortisol assay); type: cell-based; settings: CHO-K1 cells over-expressing human 11b-HSD1, 160 nM cortisone, 3 hours, 37° C.
T1 construct: expressed in transfected cells
Text: (§1) cDNA (human: Accession No. U12978.2; mouse: Accession No. NM_008288.2) coding the full-length amino acid sequence of 11β-HSD1 in a human and a mouse was incorporated into pMSCVpuro (from Clontech. Co. Ltd.), a vector of expressing a mammalian cell for the production of a retrovirus, and the resulting product was introduced into a GP2-293 cell (from Clontech Co. Ltd.), a retrovirus packing cell line together with pVSV-G vector (from Clontech Co. Ltd.) by using a Lipotamine plus reagent (from Invitrogen Co. Ltd.) in accordance with the method set forth in the appendix (by using HTRF cortisol assay kit from Cisbio assays Co., Ltd., catalog No. 62CO2PEB) and stabilized for 48 hours. Thereafter, viruses being obtained from those cells were used to infect CHO-K1 cell (from Korean Cell Line Bank, KCLB No. 10061) and in 24 hours, the cells were treated with 10 μg/ml pumycin (from Sigma Co. Ltd.) for two weeks to produce a stabilized cell system wherein each 11β-HSD1 in humans or in mice was over-expressed. When the cells being maintained, 5 μg/ml of puromycin was put into the medium and used (RPMI (Gibco), 37° C.). • Reference material: The EMBO Journal (2008) 27, 642-653
(§2) The obtained cells with 11b-HSD1 in a human and a mouse being over-expressed were sub-cultured in a 96-well plate with a cell number being 3×10^4 cells per well and stabilized for 24 hours [RPMI (Gibco), at 37° C., as being used in 5 days after thawing]. After a medium as diluted with DMSO including 160 nM of cortisone (from Sigma Co. Ltd.) and a test compound at a different concentration was put into each well in an amount of 200 ul, the well was cultured in a cell cultivator at 37° C. for 3 hours. 10 ul of the cultured solution was put into a 384 well plate and the amount of cortisol as generated was measured using a cortisol kit (from Cisbio international Co. Ltd, HTRF assay) in accordance with the method set forth in the appended manual.
(§3) As a control group, 160 nM of cortisone and 1% of DMSO were put into a corresponding well. The ground value was obtained from a well including only 160 nM of cortisone and 1% of DMSO without cells just like the control group. The calculation for a % inhibition level was made following the manual as appended. • Reference material: The Journal of Steroid Biochemistry and Molecular Biology, Volume 104, Issues 3-5, May 2007, Pages 123-129 • Bioorganic & Medicinal Chemistry Letters Volume 19, Issue 10, 15 May 2009, Pages 2674-2678
(§4) Like the analyzing method as stated above, the efficacy of inhibiting 11b-HSD1 was calculated as IC50 and the results are shown in Table 1: […]

[2] = target: T2, Mouse 11b-HSD1 (Mus musculus, UniProt P50172); experiment: Inhibition of cortisone-to-cortisol conversion in CHO-K1 cells over-expressing mouse 11b-HSD1 (HTRF cortisol assay); type: cell-based; settings: CHO-K1 cells over-expressing mouse 11b-HSD1, 160 nM cortisone, 3 hours, 37° C.
T2 construct: expressed in transfected cells
Text: as §1, §2, §3, §4

T1 sequence (P28845 whole entry): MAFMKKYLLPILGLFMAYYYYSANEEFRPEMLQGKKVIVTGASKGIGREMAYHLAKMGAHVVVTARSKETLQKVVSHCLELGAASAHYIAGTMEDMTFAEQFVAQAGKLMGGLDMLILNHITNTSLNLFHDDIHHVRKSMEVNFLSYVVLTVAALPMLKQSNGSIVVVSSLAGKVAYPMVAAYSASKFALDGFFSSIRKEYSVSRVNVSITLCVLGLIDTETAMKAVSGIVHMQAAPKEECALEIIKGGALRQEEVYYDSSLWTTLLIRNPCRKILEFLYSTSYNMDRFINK
T2 sequence (P50172 whole entry): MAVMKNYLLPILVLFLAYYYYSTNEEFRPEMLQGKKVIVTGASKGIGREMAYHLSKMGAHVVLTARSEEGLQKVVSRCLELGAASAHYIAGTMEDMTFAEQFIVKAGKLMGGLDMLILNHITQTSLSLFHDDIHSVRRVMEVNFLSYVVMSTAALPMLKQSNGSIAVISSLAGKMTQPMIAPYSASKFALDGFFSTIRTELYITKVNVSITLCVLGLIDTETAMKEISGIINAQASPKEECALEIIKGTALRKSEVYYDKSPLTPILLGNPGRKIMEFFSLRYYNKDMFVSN

Row | SMILES | IC50 [1] [nM] | IC50 [2] [nM]
1 | Cc1csc(C(=O)N[C@H]2C3CC4CC2C[C@](C(N)=O)(C4)C3)c1 [Example 23, N-(5-carbamoyl-2-adamantyl)-4-methylthiophene-2-carboxamide] | 100 to 500 | 100 to 500
2 | Cc1ccccc1-c1cc(C(=O)N[C@H]2C3CC4CC2C[C@](C(N)=O)(C4)C3)no1 [Example 8, N-(5-carbamoyl-2-adamantyl)-5-(2-methylphenyl)-1,2-oxazole-3-carboxamide] | 100 to 500 | > 500
3 | NC(=O)[C@]12CC3CC(C1)[C@@H](NC(=O)c1cccs1)C(C3)C2 [Example 22, N-(5-carbamoyl-2-adamantyl)thiophene-2-carboxamide] | 100 to 500 | > 500
4 | Cn1c(C(=O)N[C@H]2C3CC4CC2C[C@](C(N)=O)(C4)C3)ccc1-c1ccc(Cl)cc1 [Example 35, N-(5-carbamoyl-2-adamantyl)-5-(4-chlorophenyl)-1-methylpyrrole-2-carboxamide] | < 100 | 100 to 500
5 | Cc1cccc(C(=O)N[C@H]2C3CC4CC2C[C@](C(N)=O)(C4)C3)n1 [Example 15, N-(5-carbamoyl-2-adamantyl)-6-methylpyridine-2-carboxamide] | < 100 | 100 to 500
6 | NC(=O)[C@]12CC3CC(C1)[C@@H](NC(=O)c1cc(-c4cccc(F)c4)on1)C(C3)C2 [Example 12, N-(5-carbamoyl-2-adamantyl)-5-(3-fluorophenyl)-1,2-oxazole-3-carboxamide] | > 500 | > 500
7 | COc1ccccc1-c1cc(C(=O)N[C@H]2C3CC4CC2C[C@](C(N)=O)(C4)C3)no1 [Example 7, N-(5-carbamoyl-2-adamantyl)-5-(2-methoxyphenyl)-1,2-oxazole-3-carboxamide] | > 500 | > 500

Second part, the compound after the results:

Row | IC50 [1] [nM] | IC50 [2] [nM] | SMILES
8 | < 100 | 100 to 500 | Cn1c(C(=O)N[C@H]2C3CC4CC2C[C@](C(N)=O)(C4)C3)ccc1-c1ccc(C(F)(F)F)cc1 [Example 37, N-(5-carbamoyl-2-adamantyl)-1-methyl-5-[4-(trifluoromethyl)phenyl]pyrrole-2-carboxamide]
9 | < 100 | 100 to 500 | NC(=O)[C@]12CC3CC(C1)[C@@H](NC(=O)c1cccc(OCc4ccccc4)n1)C(C3)C2 [Example 47, N-(5-carbamoyl-2-adamantyl)-6-phenylmethoxypyridine-2-carboxamide]
10 | < 100 | < 100 | Cn1c(C(=O)N[C@H]2C3CC4CC2C[C@](C(N)=O)(C4)C3)ccc1-c1ccc(F)cc1 [Example 36, N-(5-carbamoyl-2-adamantyl)-5-(4-fluorophenyl)-1-methylpyrrole-2-carboxamide]
11 | < 100 |  | Cc1noc(C)c1COc1cccc(C(=O)N[C@H]2C3CC4CC2C[C@](C(N)=O)(C4)C3)n1 [Example 48, N-(5-carbamoyl-2-adamantyl)-6-[(3,5-dimethyl-1,2-oxazol-4-yl)methoxy]pyridine-2-carboxamide]
12 | < 100 | > 500 | NC(=O)[C@]12CC3CC(C1)[C@@H](NC(=O)c1ccc4cccc(OCc5ccccc5)c4n1)C(C3)C2 [Example 53]
13 | < 100 | 100 to 500 | CC(C)Oc1cccc2ccc(C(=O)N[C@H]3C4CC5CC3C[C@](C(N)=O)(C5)C4)nc12 [Example 52, N-(5-carbamoyl-2-adamantyl)-8-propan-2-yloxyquinoline-2-carboxamide]
14 | < 100 | < 100 | CCCNc1cccc(C(=O)N[C@H]2C3CC4CC2C[C@](C(N)=O)(C4)C3)n1 [Example 60, N-(5-carbamoyl-2-adamantyl)-6-(propylamino)pyridine-2-carboxamide]
15 | < 100 | < 100 | CN(C)c1cccc(C(=O)N[C@H]2C3CC4CC2C[C@](C(N)=O)(C4)C3)n1 [Example 57, N-(5-carbamoyl-2-adamantyl)-6-(dimethylamino)pyridine-2-carboxamide]
16 | < 100 | < 100 | CCOc1cccc2ccc(C(=O)N[C@H]3C4CC5CC3C[C@](C(N)=O)(C5)C4)nc12 [Example 51, N-(5-carbamoyl-2-adamantyl)-8-ethoxyquinoline-2-carboxamide]
